Assays:
[1] = biological target: BDNF/NT-3 growth factors receptor (Homo sapiens) (UniProt Q16620); test: Selectivity interaction (KinomeScan (DiscoverX)) EUB0001049a NTRK2; conditions: at 1 µM
[2] = biological target: Proto-oncogene tyrosine-protein kinase Src (Homo sapiens, UniProt P12931); test: Selectivity interaction (KinomeScan (DiscoverX)) EUB0000229b SRC; conditions: at 10 µM
[3] = biological target: Tyrosine-protein kinase CSK (Homo sapiens) (UniProt P41240); test: Selectivity interaction (ActivX KiNativ screen (kinase selectivity in THP-1 cell lysates)) EUB0000639a CSK; assay type: subcellular; conditions: lysate, at 0.2 µM
[4] = biological target: T1, Dual specificity mitogen-activated protein kinase kinase 3 (Homo sapiens) (UniProt P46734); test: Selectivity interaction (ActivX KiNativ screen (kinase selectivity in THP-1 cell lysates)) EUB0000639a MAP2K3; assay type: subcellular; conditions: lysate, at 1 µM
T1 sequence (whole entry): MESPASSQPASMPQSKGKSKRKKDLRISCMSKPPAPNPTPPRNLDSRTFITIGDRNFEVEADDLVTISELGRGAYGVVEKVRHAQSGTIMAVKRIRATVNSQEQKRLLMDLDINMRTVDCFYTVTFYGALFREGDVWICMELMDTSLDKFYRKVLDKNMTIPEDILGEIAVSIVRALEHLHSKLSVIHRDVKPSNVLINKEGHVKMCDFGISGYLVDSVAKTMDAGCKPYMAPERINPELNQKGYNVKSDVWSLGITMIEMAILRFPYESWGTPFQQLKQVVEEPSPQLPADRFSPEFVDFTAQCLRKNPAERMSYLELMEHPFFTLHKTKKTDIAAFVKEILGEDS

[5] = biological target: Serine/threonine-protein kinase PRP4 homolog (Homo sapiens) (UniProt Q13523); test: Selectivity interaction (ActivX KiNativ screen (kinase selectivity in THP-1 cell lysates)) EUB0000639a PRPF4; assay type: subcellular; conditions: lysate, at 0.2 µM
[6] = biological target: Epidermal growth factor receptor (Homo sapiens, UniProt P00533); test: Selectivity interaction (Kinase panel (Invitrogen)) EUB0000639a EGFR; conditions: at 200 nM
[7] = biological target: Insulin receptor (Homo sapiens, UniProt P06213); test: Selectivity interaction (ActivX KiNativ screen (kinase selectivity in THP-1 cell lysates)) EUB0000639a INSR; assay type: subcellular; conditions: lysate
[8] = biological target: Serine/threonine-protein kinase PAK 6 (Homo sapiens) (UniProt Q9NQU5); test: Selectivity interaction (KinomeScan (DiscoverX)) EUB0000595a PAK6; conditions: at 10 µM
[9] = test system: Leucine-rich repeat serine/threonine-protein kinase 2 (Homo sapiens), Q5S007 [G2019S]; test: (§1) Selectivity interaction (KinomeScan (DiscoverX)) EUB0000618a LRRK2; conditions: at 10 µM
[10] = biological target: Leucine-rich repeat serine/threonine-protein kinase 2 (Homo sapiens, UniProt Q5S007); test: as §1; conditions: at 10 µM
[11] = biological target: SRSF protein kinase 1 (Homo sapiens, UniProt Q96SB4); test: Selectivity interaction (KinomeScan (DiscoverX)) EUB0000618a SRPK1; conditions: at 10 µM
[12] = biological target: Phosphatidylinositol 4-kinase beta (Homo sapiens, UniProt Q9UBF8); test: Selectivity interaction (KinomeScan (DiscoverX)) EUB0000618a PI4KB; conditions: at 10 µM
[13] = biological target: Hepatocyte growth factor receptor (Homo sapiens, UniProt P08581); test: Selectivity interaction (Kinase panel (Enzyme activity assay)) EUB0000612a MET
[14] = biological target: T2, Interleukin-1 receptor-associated kinase 3 (Homo sapiens) (UniProt Q9Y616); test: Selectivity interaction (KinomeScan (DiscoverX)) EUB0001619a IRAK3; conditions: at 1 µM
T2 sequence (whole entry): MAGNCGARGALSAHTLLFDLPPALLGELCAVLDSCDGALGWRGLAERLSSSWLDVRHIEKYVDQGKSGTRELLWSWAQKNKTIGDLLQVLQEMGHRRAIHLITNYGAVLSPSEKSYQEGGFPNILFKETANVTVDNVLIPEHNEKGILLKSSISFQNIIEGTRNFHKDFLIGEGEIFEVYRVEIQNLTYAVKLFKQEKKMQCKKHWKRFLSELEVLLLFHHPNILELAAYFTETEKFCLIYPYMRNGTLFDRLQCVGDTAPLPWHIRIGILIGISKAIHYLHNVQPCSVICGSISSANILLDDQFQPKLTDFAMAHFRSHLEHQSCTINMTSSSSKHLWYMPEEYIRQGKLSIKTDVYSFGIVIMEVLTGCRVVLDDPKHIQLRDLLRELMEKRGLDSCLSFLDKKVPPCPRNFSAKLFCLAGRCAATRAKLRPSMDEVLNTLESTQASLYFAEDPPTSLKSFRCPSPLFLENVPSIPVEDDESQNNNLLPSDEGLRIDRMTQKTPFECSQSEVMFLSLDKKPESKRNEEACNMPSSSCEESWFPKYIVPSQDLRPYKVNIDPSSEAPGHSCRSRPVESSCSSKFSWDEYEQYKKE

[15] = biological target: Tyrosine-protein kinase Fgr (Homo sapiens) (UniProt P09769); test: Selectivity interaction (SelectScreen profiling (Invitrogen)) EUB0000607a FGR; conditions: at 2 µM
[16] = biological target: Atypical kinase COQ8A, mitochondrial (Homo sapiens, UniProt Q8NI60); test: Selectivity interaction (LanthaScreen Eu Kinase Binding Assay) EUB0001632a ADCK3; conditions: at 10 µM
[17] = biological target: BDNF/NT-3 growth factors receptor (Homo sapiens) (UniProt Q16620); test: Selectivity interaction (Kinase panel (Z-LYTE Assay)) EUB0001632a NTRK2; conditions: at 10 µM
[18] = test system: Tyrosine-protein kinase ABL1 (Homo sapiens), P00519 [E255K]; test: (§2) Selectivity interaction (ProQinase) EUB0000171b ABL1
[19] = test system: Tyrosine-protein kinase ABL1 (Homo sapiens), P00519 [G250E]; test: as §2
[20] = test system: Tyrosine-protein kinase ABL1 (Homo sapiens), P00519 [F317I]; test: as §2
[21] = biological target: Tyrosine-protein kinase ABL1 (Homo sapiens, UniProt P00519); test: as §2
[22] = test system: Tyrosine-protein kinase ABL1 (Homo sapiens), P00519 [T315I]; test: as §2
[23] = test system: Tyrosine-protein kinase ABL1 (Homo sapiens), P00519 [M351T]; test: as §2
[24] = test system: Tyrosine-protein kinase ABL1 (Homo sapiens), P00519 [Q252H]; test: as §2
[25] = test system: Tyrosine-protein kinase ABL1 (Homo sapiens), P00519 [Y253F]; test: as §2
[26] = test system: Tyrosine-protein kinase ABL1 (Homo sapiens), P00519 [H396P]; test: as §2
[27] = biological target: ALK tyrosine kinase receptor (Homo sapiens, UniProt Q9UM73); test: Selectivity interaction (ProQinase) EUB0000171b ALK; conditions: at 1 µM
Sequence of ALK tyrosine kinase receptor (Q9UM73 19-1620 limits assumed): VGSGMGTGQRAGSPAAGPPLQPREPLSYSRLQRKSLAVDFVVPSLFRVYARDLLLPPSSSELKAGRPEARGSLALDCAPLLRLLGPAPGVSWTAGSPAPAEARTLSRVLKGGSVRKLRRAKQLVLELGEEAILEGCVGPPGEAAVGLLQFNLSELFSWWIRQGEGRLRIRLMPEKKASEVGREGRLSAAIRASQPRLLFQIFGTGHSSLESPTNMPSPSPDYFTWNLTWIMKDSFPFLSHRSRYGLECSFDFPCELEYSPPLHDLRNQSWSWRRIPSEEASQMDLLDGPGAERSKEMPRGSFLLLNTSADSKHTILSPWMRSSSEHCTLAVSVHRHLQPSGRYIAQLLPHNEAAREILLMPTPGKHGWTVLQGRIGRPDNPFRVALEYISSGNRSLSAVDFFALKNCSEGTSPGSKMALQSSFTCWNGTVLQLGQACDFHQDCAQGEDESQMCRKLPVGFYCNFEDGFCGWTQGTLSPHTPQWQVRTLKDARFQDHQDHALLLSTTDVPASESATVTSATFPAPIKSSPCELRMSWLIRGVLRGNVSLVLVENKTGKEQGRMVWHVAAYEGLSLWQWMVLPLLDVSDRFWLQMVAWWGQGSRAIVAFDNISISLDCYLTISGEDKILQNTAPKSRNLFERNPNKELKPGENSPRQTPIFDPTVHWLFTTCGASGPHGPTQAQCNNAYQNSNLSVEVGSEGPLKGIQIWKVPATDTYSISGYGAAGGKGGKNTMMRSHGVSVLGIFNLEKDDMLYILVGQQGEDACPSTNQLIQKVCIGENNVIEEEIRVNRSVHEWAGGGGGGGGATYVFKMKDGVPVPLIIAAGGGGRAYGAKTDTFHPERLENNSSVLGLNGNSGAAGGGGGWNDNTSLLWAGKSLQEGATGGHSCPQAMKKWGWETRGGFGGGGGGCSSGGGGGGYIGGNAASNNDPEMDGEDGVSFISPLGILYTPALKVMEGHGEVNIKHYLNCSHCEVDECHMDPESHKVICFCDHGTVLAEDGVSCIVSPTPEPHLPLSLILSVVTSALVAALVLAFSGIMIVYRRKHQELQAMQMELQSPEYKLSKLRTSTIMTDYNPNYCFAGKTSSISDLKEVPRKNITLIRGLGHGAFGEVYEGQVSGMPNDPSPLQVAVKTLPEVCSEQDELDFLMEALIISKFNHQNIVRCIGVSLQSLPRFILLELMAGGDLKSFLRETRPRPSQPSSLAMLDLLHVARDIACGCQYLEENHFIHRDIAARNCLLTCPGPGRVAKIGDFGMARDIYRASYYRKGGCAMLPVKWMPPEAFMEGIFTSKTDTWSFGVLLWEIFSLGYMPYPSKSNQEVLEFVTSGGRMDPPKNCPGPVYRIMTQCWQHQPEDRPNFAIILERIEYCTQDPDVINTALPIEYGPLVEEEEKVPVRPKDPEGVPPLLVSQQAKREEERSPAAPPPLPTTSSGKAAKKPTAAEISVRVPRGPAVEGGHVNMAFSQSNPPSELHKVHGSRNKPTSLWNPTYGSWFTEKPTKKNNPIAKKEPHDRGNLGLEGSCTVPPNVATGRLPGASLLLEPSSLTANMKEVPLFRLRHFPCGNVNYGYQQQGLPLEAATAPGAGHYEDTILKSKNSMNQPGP

Sequence of Insulin receptor (P06213 28-758 limits assumed): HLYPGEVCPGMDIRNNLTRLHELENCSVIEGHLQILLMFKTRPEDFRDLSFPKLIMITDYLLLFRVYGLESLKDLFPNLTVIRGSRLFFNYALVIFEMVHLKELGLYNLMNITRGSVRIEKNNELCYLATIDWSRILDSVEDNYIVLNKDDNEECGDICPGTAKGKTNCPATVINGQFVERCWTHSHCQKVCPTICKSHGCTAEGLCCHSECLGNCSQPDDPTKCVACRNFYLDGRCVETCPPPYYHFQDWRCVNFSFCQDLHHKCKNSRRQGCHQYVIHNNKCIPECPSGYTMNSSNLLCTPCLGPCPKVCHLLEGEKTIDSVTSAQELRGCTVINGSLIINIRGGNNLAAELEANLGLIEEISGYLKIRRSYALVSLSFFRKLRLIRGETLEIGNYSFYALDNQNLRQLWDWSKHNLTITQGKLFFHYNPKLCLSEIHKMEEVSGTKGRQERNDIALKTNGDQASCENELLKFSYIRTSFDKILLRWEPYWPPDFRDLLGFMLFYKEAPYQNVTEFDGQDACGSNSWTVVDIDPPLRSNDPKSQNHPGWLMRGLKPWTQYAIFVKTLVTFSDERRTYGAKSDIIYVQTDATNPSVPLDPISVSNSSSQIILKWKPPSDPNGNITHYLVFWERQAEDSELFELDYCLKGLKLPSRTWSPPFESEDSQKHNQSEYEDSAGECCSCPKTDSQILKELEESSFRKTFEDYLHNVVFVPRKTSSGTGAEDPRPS
Sequence of Insulin receptor (P06213 763-1382 limits assumed): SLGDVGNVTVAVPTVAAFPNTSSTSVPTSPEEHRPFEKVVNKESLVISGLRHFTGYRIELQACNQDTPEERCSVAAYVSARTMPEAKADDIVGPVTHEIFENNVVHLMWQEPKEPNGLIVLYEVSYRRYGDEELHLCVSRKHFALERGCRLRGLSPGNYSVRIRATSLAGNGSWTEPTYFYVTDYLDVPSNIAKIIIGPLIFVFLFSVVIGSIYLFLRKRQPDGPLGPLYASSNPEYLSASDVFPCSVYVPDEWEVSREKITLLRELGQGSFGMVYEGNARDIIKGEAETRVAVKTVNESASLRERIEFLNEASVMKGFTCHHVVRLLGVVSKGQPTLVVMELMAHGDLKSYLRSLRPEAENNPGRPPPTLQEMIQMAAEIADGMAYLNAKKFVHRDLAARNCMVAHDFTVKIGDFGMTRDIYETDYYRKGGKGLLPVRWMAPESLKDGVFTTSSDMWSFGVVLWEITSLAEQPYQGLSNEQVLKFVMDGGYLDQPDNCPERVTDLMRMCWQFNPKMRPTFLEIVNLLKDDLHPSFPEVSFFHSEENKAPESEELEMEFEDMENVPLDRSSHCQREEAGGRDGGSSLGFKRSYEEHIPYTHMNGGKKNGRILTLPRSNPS
Sequence of BDNF/NT-3 growth factors receptor (Homo sapiens) (Q16620 32-822 limits assumed): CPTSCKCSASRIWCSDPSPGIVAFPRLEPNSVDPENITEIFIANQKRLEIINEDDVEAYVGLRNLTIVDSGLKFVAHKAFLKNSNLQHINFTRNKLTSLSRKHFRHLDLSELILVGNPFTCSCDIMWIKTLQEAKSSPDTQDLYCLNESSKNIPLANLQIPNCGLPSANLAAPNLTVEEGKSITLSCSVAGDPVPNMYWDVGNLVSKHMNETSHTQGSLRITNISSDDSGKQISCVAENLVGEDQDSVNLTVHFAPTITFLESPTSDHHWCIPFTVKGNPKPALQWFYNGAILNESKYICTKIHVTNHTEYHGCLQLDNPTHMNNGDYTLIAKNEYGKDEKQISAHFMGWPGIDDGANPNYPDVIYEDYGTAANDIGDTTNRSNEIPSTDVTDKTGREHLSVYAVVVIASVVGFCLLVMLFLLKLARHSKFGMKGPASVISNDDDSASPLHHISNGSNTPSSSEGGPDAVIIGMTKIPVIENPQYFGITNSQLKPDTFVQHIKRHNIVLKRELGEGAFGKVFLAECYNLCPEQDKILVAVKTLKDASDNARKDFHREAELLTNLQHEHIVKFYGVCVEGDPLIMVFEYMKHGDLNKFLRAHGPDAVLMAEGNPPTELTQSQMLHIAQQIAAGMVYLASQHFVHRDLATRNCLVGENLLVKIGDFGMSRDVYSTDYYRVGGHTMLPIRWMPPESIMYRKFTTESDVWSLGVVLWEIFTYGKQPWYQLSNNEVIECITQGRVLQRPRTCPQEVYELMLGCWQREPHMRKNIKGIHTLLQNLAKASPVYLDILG
Sequence of Serine/threonine-protein kinase PAK 6 (Homo sapiens) (Q9NQU5 whole entry, looked up): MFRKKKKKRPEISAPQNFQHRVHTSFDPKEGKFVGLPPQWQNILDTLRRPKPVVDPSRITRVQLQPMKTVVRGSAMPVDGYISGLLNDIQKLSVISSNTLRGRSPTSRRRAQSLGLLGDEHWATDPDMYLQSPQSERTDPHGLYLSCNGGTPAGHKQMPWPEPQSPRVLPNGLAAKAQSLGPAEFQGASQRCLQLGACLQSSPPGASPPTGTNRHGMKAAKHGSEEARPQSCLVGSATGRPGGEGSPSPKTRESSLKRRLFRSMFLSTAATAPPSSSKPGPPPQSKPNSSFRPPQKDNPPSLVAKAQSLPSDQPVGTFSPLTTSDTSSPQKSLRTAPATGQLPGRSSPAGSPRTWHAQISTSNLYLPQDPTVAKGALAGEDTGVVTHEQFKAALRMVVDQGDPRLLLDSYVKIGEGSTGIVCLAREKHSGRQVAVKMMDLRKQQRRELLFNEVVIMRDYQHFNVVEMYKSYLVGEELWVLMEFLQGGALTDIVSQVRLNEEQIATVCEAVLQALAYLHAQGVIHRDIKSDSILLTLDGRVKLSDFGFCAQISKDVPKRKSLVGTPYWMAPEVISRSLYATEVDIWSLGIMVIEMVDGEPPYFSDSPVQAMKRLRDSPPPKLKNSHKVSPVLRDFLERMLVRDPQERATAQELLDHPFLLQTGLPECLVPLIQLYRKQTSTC
Sequence of Tyrosine-protein kinase Fgr (Homo sapiens) (P09769 2-529 limits assumed): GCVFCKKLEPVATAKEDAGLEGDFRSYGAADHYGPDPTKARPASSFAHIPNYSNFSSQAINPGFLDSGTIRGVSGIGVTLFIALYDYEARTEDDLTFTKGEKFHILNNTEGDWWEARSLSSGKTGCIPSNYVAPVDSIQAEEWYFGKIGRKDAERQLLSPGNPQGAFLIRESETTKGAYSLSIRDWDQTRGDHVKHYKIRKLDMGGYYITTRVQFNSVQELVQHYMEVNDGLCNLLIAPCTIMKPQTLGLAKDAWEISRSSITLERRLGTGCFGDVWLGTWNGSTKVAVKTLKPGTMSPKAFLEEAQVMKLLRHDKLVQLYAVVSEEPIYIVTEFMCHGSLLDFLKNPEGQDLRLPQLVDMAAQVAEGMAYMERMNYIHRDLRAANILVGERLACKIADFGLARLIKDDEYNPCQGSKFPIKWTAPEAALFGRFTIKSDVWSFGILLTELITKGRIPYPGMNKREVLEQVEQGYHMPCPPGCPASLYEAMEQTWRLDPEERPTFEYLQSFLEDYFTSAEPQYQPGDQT

`COc1cc(Nc2nc(C)cc(-c3cnn4nc(OC)ccc34)n2)cc(C(F)(F)F)c1` was tested, and the % of control [1] was 96%.

`COc1cc(N(C)c2ccnc3ccc(C(F)(F)F)cc23)cc(OC)c1OC` was tested, and the % binding [2] was 100%.

Compound `CC[C@@H]1[C@H](F)C(=O)N[C@@H]1COc1nccc2cc(C(N)=O)c(OC)cc12` [ZIMLOVISERTIB] has a % of inhibition [3] of -6.8%, a % of inhibition [4] of -152% and a % of inhibition [5] of 21.9%. The % of inhibition [6] was 1.86%, the % of inhibition ([7]; at 0.01 µM) was -44.7% and the % of inhibition ([7]; at 0.04 µM) was 10.7%. It also gave a % of inhibition ([7]; at 0.2 µM) of -15.5%, a % of inhibition ([7]; at 1 µM) of -21.5% and a % of inhibition ([7]; at 5 µM) of -37.4%.

In the case of `COCC(=O)NC/C=C/c1ccc2ncnc(Nc3ccc(Oc4ccc(C)nc4)c(C)c3)c2c1` [CP-724714], the % of control [8] is reported as 87%.

Work on `O[C@H]1CC[C@H](Nc2ncc3nc(Nc4c(F)cc(F)cc4F)n([C@H]4CCOC4)c3n2)CC1` yielded a % of control [9] of 95%, a % of control [10] of 83% and a % of control [11] of 100%. It also gave a % of control [12] of 100%.

In the case of `CCc1cccc(CC)c1NC(=O)c1nn(C)c2c1CCc1cnc(Nc3ccc(C(=O)NC4CCN(C)CC4)cc3OC(F)(F)F)nc1-2`, the IC50 [13] is reported as > 10 µM.

With `N#Cc1cccc(-c2c[nH]c3ncnc(N4CCOCC4)c23)c1` the % of control [14] was 74%.

Work on `CNC(=O)Nc1ccc(-c2nc(N3CC4CCC(C3)O4)c3cnn(C4CCC5(CC4)OCCO5)c3n2)cc1` yielded a % of inhibition [15] of 1%.

Compound `Cn1cc(-n2cnc3c(NCc4nc5cc(Cl)c(Cl)cc5[nH]4)nc(N4CCOCC4)nc32)cn1` has a % of inhibition [16] of 8.48% and a % of control [17] of 4.86%.

`C=CC(=O)Nc1cccc(C(=O)Nc2ccc(Nc3cc(-c4[nH]c(SC)nc4C)ccn3)cc2)c1` was tested, and the % of control ([18]; at 1 µM) was 94%, the % of control ([18]; at 5 µM) was 88% and the % of control ([19]; at 1 µM) was 88%. The % of control ([19]; at 5 µM) was 89%, the % of control ([20]; at 1 µM) was 102% and the % of control ([20]; at 5 µM) was 82%. It also gave a % of control ([21]; at 1 µM) of 96%, a % of control ([21]; at 5 µM) of 71% and a % of control ([22]; at 1 µM) of 91%. It also gave a % of control ([22]; at 5 µM) of 82%, a % of control ([23]; at 1 µM) of 87% and a % of control ([23]; at 5 µM) of 61%. For the same compound, the % of control ([24]; at 1 µM) was 96%, the % of control ([24]; at 5 µM) was 65% and the % of control ([25]; at 1 µM) was 85%. For the same compound, the % of control ([25]; at 5 µM) was 64%, the % of control ([26]; at 1 µM) was 93% and the % of control ([26]; at 5 µM) was 71%. For the same compound, the % of control [27] was 94%.

Reference: ChEMBL document CHEMBL5465560, “Selectivity Literature for EUbOPEN Chemogenomic Library” (2024)
